Measured values reported in the NIST ThermoML archive (doi:10.1021/je101178u).
Several values for one entry are separate records, joined by “and”; a condition that tells them apart may be missing. Identical values can stand only once.

Conditions: 307.15 K, Fluid (supercritical or subcritical phases); for viscosity: vibrating wire; for mass density: Buoyancy - hydrostatic balance with magnetic suspension - one sinker

CC [ethane]
Conditions | mass density | viscosity
5348.1 kPa | – | 0.03109 mPa·s
5348.3 kPa | 282.116 kg/m3 | 0.03109 mPa·s
5348.5 kPa | 282.128 kg/m3 | 0.0311 mPa·s
5348.6 kPa | 282.136 kg/m3 | 0.0311 mPa·s
5367.9 kPa | 283.622 kg/m3 | 0.0314 mPa·s
5368.5 kPa | 283.666 kg/m3 | 0.0314 mPa·s
5369.1 kPa | 283.708 kg/m3 | 0.03144 mPa·s
5369.4 kPa | 283.73 kg/m3 | 0.03141 mPa·s
5648.1 kPa | 299.179 kg/m3 | 0.03389 mPa·s
5648.3 kPa | 299.189 kg/m3 | 0.03388 mPa·s
5648.7 kPa | 299.204 kg/m3 | 0.03392 mPa·s
5648.8 kPa | 299.208 kg/m3 | 0.03391 mPa·s
5673.9 kPa | 300.263 kg/m3 and 300.265 kg/m3 | 0.0342 mPa·s and 0.03418 mPa·s
5674 kPa | 300.27 kg/m3 | 0.03416 mPa·s
5674.2 kPa | 300.276 kg/m3 | 0.03417 mPa·s
6326.2 kPa | 319.788 kg/m3 | 0.03773 mPa·s
6328.2 kPa | 319.833 kg/m3 | 0.03774 mPa·s
6328.5 kPa | 319.84 kg/m3 | 0.03772 mPa·s
6328.9 kPa | 319.85 kg/m3 | 0.03776 mPa·s
6343.9 kPa | 320.187 kg/m3 | 0.03781 mPa·s
6344.7 kPa | 320.206 kg/m3 | 0.03783 mPa·s
6346 kPa | 320.235 kg/m3 | 0.03784 mPa·s
6347.2 kPa | 320.26 kg/m3 | 0.03783 mPa·s
7598.2 kPa | 341.1 kg/m3 | 0.04226 mPa·s
7602.2 kPa | 341.152 kg/m3 | 0.0423 mPa·s
7603 kPa | 341.162 kg/m3 | 0.0423 mPa·s
7700.1 kPa | 342.393 kg/m3 | 0.04256 mPa·s
7700.8 kPa | 342.402 kg/m3 | 0.04257 mPa·s
7701.7 kPa | 342.413 kg/m3 | 0.04257 mPa·s
9627.4 kPa | 361.481 kg/m3 | 0.04726 mPa·s
9628.1 kPa | 361.486 kg/m3 | 0.04728 mPa·s
9703.1 kPa | 362.086 kg/m3 | 0.04743 mPa·s
9703.6 kPa | 362.09 kg/m3 | 0.04742 mPa·s
9705 kPa | 362.101 kg/m3 | 0.04738 mPa·s
12507 kPa | 380.383 kg/m3 | 0.05257 mPa·s
12508 kPa | 380.388 kg/m3 | 0.05257 mPa·s
12509 kPa | 380.392 kg/m3 | 0.05255 mPa·s
12544 kPa | 380.585 kg/m3 | 0.05276 mPa·s
12545 kPa | 380.588 kg/m3 | 0.05268 mPa·s
12549 kPa | 380.613 kg/m3 | 0.05262 mPa·s
12554 kPa | 380.638 kg/m3 | 0.05258 mPa·s and 0.0526 mPa·s
12558 kPa | 380.661 kg/m3 | 0.05263 mPa·s
12559 kPa | 380.663 kg/m3 | 0.05263 mPa·s
15941 kPa | 396.414 kg/m3 | 0.05768 mPa·s
15981 kPa | 396.579 kg/m3 | 0.05768 mPa·s
15985 kPa | 396.595 kg/m3 | 0.05765 mPa·s
15986 kPa | 396.599 kg/m3 | 0.05767 mPa·s
15987 kPa | 396.601 kg/m3 | 0.05769 mPa·s
16874 kPa | 400.063 kg/m3 and 400.065 kg/m3 | 0.05888 mPa·s and 0.05882 mPa·s
16875 kPa | 400.066 kg/m3 and 400.067 kg/m3 and 400.068 kg/m3 | 0.05887 mPa·s [middle of 4 runs]
16876 kPa | 400.071 kg/m3 and 400.073 kg/m3 | 0.05885 mPa·s
16877 kPa | 400.075 kg/m3 | 0.05884 mPa·s
19746 kPa | 410.021 kg/m3 and 410.023 kg/m3 | 0.06238 mPa·s and 0.06241 mPa·s
19749 kPa | 410.03 kg/m3 | 0.06236 mPa·s
19750 kPa | 410.034 kg/m3 | 0.06242 mPa·s
19751 kPa | 410.039 kg/m3 | 0.0624 mPa·s
23209 kPa | 420.154 kg/m3 | 0.06633 mPa·s
23210 kPa | 420.157 kg/m3 and 420.156 kg/m3 | 0.06633 mPa·s and 0.0663 mPa·s and 0.06634 mPa·s
24530 kPa | 423.617 kg/m3 and 423.615 kg/m3 | 0.06776 mPa·s and 0.06778 mPa·s and 0.06781 mPa·s
24531 kPa | 423.619 kg/m3 | 0.06774 mPa·s and 0.06775 mPa·s
25875 kPa | 426.955 kg/m3 | 0.06913 mPa·s
25877 kPa | 426.961 kg/m3 | 0.06914 mPa·s
25879 kPa | 426.966 kg/m3 | 0.06906 mPa·s
25881 kPa | 426.969 kg/m3 | 0.06911 mPa·s
29053 kPa | 434.215 kg/m3 | 0.07235 mPa·s
29057 kPa | 434.225 kg/m3 | 0.07232 mPa·s
29063 kPa | 434.238 kg/m3 | –
